Measured values as given in patent US10143681B2, “Factor XIa inhibitors” (MERCK SHARP & DOHME CORP., priority 2016, dated 2018).

Molecular target: human Factor XIa (Homo sapiens (Human), UniProt P03951)
Test: Factor XIa Assay
Format: biochemical
Conditions: for inhibition at 1 µM: @ 1000 nM compound, read-out: FXIa % Inh. @ 1000 nM; for IC50: human Factor XIa 0.04 nM, 30 min pre-incubation at 25° C., substrate GPR-AFC, read-out: FXIa IC50
Method: The effectiveness of a compound of the present invention as an inhibitor of Coagulation Factor XIa can be determined using a relevant purified serine protease, and an appropriate synthetic substrate. The rate of hydrolysis of the chromogenic or fluorogenic substrate by the relevant serine protease was measured both in the absence and presence of compounds of the present invention. Assays were conducted at room temperature or at 37° C. […] A decrease in the rate of fluorescence change in the presence of inhibitor is indicative of enzyme inhibition. Such methods are known to one skilled in the art. The results of this assay are expressed as the half-maximal inhibitory concentrations (IC50), or the inhibitory constant, Ki.
Compounds were pre-incubated for 30 minutes at 25° C. with human (0.04 nM) Factor XIa in 50 mM HEPES buffer with 150 mM sodium chloride, 5 mM calcium chloride, 0.1% PEG 8000, pH 7.4. Factor XIa enzymatic activity was determined by addition of the substrate glycine-proline-arginine-7-amido-4-trifluoromethylcoumarin (GPR-AFC) and measurement of the fluorescence at 400/505 nm after a 60 minute incubation at 25° C. The % inhibition for each data point was calculated from the data and analyzed using the log (inhibitor) vs. response four parameters equation to determine the half-maximal inhibitory concentrations (IC50). The IC50 were converted to equilibrium inhibitory constants (Ki) using the Cheng-Prusoff equation.

human Factor XIa, sequence (P03951 388-625): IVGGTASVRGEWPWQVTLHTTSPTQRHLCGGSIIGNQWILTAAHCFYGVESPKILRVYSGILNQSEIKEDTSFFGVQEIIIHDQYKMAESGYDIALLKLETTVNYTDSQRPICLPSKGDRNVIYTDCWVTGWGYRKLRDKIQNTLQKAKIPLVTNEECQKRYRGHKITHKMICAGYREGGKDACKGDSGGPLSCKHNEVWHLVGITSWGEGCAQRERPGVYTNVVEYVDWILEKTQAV
human Factor XIa, sequence (P03951 19-387 partner): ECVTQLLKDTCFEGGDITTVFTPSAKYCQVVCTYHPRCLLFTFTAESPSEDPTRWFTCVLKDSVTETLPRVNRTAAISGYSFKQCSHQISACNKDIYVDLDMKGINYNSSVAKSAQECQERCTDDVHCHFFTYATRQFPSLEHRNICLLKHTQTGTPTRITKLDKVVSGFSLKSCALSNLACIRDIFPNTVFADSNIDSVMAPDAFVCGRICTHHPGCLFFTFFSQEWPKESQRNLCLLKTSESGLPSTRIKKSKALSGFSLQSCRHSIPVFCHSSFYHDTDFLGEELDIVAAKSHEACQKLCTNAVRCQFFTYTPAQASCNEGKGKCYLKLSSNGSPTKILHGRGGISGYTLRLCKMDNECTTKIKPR

Row | inhibition at 1 µM [%] | IC50 [nM] | SMILES
1 | 37 | 1000 | CC1CCC1CC(C(=O)Nc1ccc(C(=O)O)cc1)c1ccc(-c2c(OC(F)F)ccc(Cl)c2F)c[n+]1[O-] (single isomer, unassigned) [Example 104, 2-(1-((4-carboxyphenyl)amino)-3-(2-methylcyclobutyl)-1-oxopropan-2-yl)-5-(3-chloro-6-(difluoromethoxy)-2-fluorophenyl)pyridine 1-oxide]
2 | 13 | > 1000 | COC(=O)c1ccc(NC(=O)C(CC2CCC2)c2ccc(-c3c(C(F)F)ccc(Cl)c3F)c[n+]2[O-])cc1 (single isomer, unassigned) [Example 20, (S)- or (R)-methyl 4-[(2-{5-[3-chloro-6-(difluoromethyl)-2-fluorophenyl]-1-oxidopyridin-2-yl}-3-cyclobutylpropanoyl)amino]benzoate]
3 |  | 26 | O=C(O)c1ccc(NC(=O)C(C[C@H]2CC[C@H](O)CC2)c2ccc(-c3c(C(F)F)ccc(Cl)c3F)c[n+]2[O-])cc1 (single isomer, unassigned) [Example 36, (S)- or (R)-2-(1-((4-carboxyphenyl)amino)-3-((1r,4r)-4-hydroxycyclohexyl)-1-oxopropan-2-yl)-5-(3-chloro-6-(difluoromethyl)-2-fluorophenyl)pyridine 1-oxide]
4 |  | 83 | COC(=O)c1ccc(NC(=O)C(CC2CCC2)c2ccc(-c3c(C(F)F)ccc(Cl)c3F)c[n+]2[O-])cc1 (single isomer, unassigned) [Example 21, (R)- or (S)-methyl 4-[(2-{5-[3-chloro-6-(difluoromethyl)-2-fluorophenyl]-1-oxidopyridin-2-yl}-3-cyclobutylpropanoyl)amino]benzoate]
5 | 48 | > 1000 | CC(C1CC1)C(C(=O)Nc1ccc(C(=O)O)cc1)c1ccc(-c2c(OC(F)F)ccc(Cl)c2F)c[n+]1[O-] (single isomer, unassigned) [Example 57, 2-(1-((4-carboxyphenyl)amino)-3-cyclopropyl-1-oxobutan-2-yl)-5-(3-chloro-6-(difluoromethoxy)-2-fluorophenyl)pyridine 1-oxide]
6 |  | 55 | CC1CC1C[C@H](C(=O)Nc1ccc(C(=O)O)cc1)c1ccc(-c2c(C(F)F)ccc(Cl)c2F)c[n+]1[O-] (single isomer, unassigned) [Example 61]
7 |  | 620 | Cc1cc(NC(=O)C(CC2CC2)c2ccc(-c3c(C(F)F)ccc(Cl)c3F)c[n+]2[O-])ccc1C(=O)O (single isomer, unassigned) [Example 121, 2-(1-((4-carboxy-3-methylphenyl)amino)-3-cyclopropyl-1-oxopropan-2-yl)-5-(3-chloro-6-(difluoromethyl)-2-fluorophenyl)pyridine 1-oxide]
8 | 47 |  | O=C(O)c1ccc(NC(=O)[C@H](CC2CC2)c2ccc(-c3c(OC(F)F)ccc(Cl)c3F)c[n+]2[O-])cc1 (single isomer, unassigned) [Example 1]
9 |  | 58.4 | O=C(O)c1ccc(NC(=O)C(CC2CC2)c2ccc(-c3c(C(F)F)ccc(Cl)c3F)c[n+]2[O-])cc1F (single isomer, unassigned) [Example 117, 2-(1-((4-carboxy-3-fluorophenyl)amino)-3-cyclopropyl-1-oxopropan-2-yl)-5-(3-chloro-6-(difluoromethyl)-2-fluorophenyl)pyridine 1-oxide]
10 |  | 299 | C[C@]1(O)CC[C@@H](CC(C(=O)Nc2ccc(C(=O)O)cc2)c2ccc(-c3c(C(F)F)ccc(Cl)c3F)c[n+]2[O-])CC1 (single isomer, unassigned) [Example 44, 2-(1-((4-carboxyphenyl)amino)-3-((1s,4s)-4-hydroxy-4-methylcyclohexyl)-1-oxopropan-2-yl)-5-(3-chloro-6-(difluoromethyl)-2-fluorophenyl)pyridine 1-oxide]
11 |  | 370 | CC1CC1C[C@H](C(=O)Nc1ccc(C(=O)O)cc1)c1ccc(-c2c(OC(F)F)ccc(Cl)c2F)c[n+]1[O-] (single isomer, unassigned) [Example 54]
12 | 35 | > 1000 | O=C(O)c1ccc(NC(=O)[C@@H](CC2CC2)c2ccc(-c3c(OCC4CC4)ccc(Cl)c3F)c[n+]2[O-])cc1 [Example 12, (S)-4-[(2-{5-[3-chloro-6-(cyclopropylmethoxy)-2-fluorophenyl]-1-oxidopyridin-2-yl}-3-cyclopropylpropanoyl)amino] benzoic acid]
13 |  | 157 | CC1(C)CC1CC(C(=O)Nc1ccc(C(=O)O)cc1)c1ccc(-c2c(OC(F)F)ccc(Cl)c2F)c[n+]1[O-] (single isomer, unassigned) [Example 111, 2-(1-((4-carboxyphenyl)amino)-3-(2,2-dimethylcyclopropyl)-1-oxopropan-2-yl)-5-(3-chloro-6-(difluoromethoxy)-2-fluorophenyl)pyridine 1-oxide]
14 |  | 128 | C[C@]1(O)CC[C@H](CC(C(=O)Nc2ccc(C(=O)O)cc2)c2ccc(-c3c(C(F)F)ccc(Cl)c3F)c[n+]2[O-])CC1 (single isomer, unassigned) [Example 46, 2-(1-((4-carboxyphenyl)amino)-3-((1r,4r)-4-hydroxy-4-methylcyclohexyl)-1-oxopropan-2-yl)-5-(3-chloro-6-(difluoromethyl)-2-fluorophenyl)pyridine 1-oxide]
15 |  | 47 | O=C(O)c1ccc(NC(=O)C(CC2CCC2)c2ccc(-c3c(OC(F)F)ccc(Cl)c3F)c[n+]2[O-])cc1 (single isomer, unassigned) [Example 14, (S)- or (R)-4-[(2-{5-[3-chloro-6-(difluoromethoxy)-2-fluorophenyl]-1-oxidopyridin-2-yl}-3-cyclobutylpropanoyl)amino] benzoic acid]
16 | 33 | > 1000 | O=C(O)c1ccc(NC(=O)C(CC2CC2)c2ccc(-c3cc(Cl)ccc3C(F)(F)F)c[n+]2[O-])cc1 (single isomer, unassigned) [Example 24, (S)- or (R)-2-(1-((4-carboxyphenyl)amino)-3-cyclopropyl-1-oxopropan-2-yl)-5-(5-chloro-2-(trifluoromethyl)phenyl)pyridine 1-oxide]
17 |  | 36 | COc1ccc(Cl)c(F)c1-c1ccc(C(CC2CC2)C(=O)Nc2ccc(C(=O)O)cc2)[n+]([O-])c1 (single isomer, unassigned) [Example 11, (R)- or (S)-4-({2-[5-(3-chloro-2-fluoro-6-methoxyphenyl)-1-oxidopyridin-2-yl]-3-cyclopropylpropanoyl}amino) benzoic acid]
18 | 13 | > 1000 | COc1ccc(Cl)c(F)c1-c1ccc(C(CC2CC2)C(=O)Nc2ccc(C(=O)O)cc2)[n+]([O-])c1 (single isomer, unassigned) [Example 10, (S)- or (R)-4-({2-[5-(3-chloro-2-fluoro-6-methoxyphenyl)-1-oxidopyridin-2-yl]-3-cyclopropylpropanoyl}amino) benzoic acid]
19 |  | 153 | CC1CCC1CC(C(=O)Nc1ccc(C(=O)O)cc1)c1ccc(-c2c(OC(F)F)ccc(Cl)c2F)c[n+]1[O-] (single isomer, unassigned) [Example 103, 2-(1-((4-carboxyphenyl)amino)-3-(2-methylcyclobutyl)-1-oxopropan-2-yl)-5-(3-chloro-6-(difluoromethoxy)-2-fluorophenyl)pyridine 1-oxide]
20 | 0 |  | CCOC(=O)c1ccc(NC(=O)C(CC2CC2)c2ccc(-c3c(C(F)F)ccc(Cl)c3F)c[n+]2[O-])cc1 (single isomer, unassigned) [Example 115, 5-(3-chloro-6-(difluoromethyl)-2-fluorophenyl)-2-(3-cyclopropyl-1-((4-(ethoxycarbonyl)phenyl)amino)-1-oxopropan-2-yl)pyridine 1-oxide]
21 |  | 334 | CC(C1CC1)C(C(=O)Nc1ccc(C(=O)O)cc1)c1ccc(-c2c(OC(F)F)ccc(Cl)c2F)c[n+]1[O-] (single isomer, unassigned) [Example 58, 2-(1-((4-carboxyphenyl)amino)-3-cyclopropyl-1-oxobutan-2-yl)-5-(3-chloro-6-(difluoromethoxy)-2-fluorophenyl)pyridine 1-oxide]
22 |  | 11 | Cc1cc(C(CC2CC2)C(=O)Nc2ccc(C(=O)O)cc2)[n+]([O-])cc1-c1c(OC(F)F)ccc(Cl)c1F [Example 67, (S)- and (R)-2-(1-((4-carboxyphenyl)amino)-3-cyclopropyl-1-oxopropan-2-yl)-5-(3-chloro-6-(difluoromethoxy)-2-fluorophenyl)-4-methylpyridine 1-oxide]
23 |  | 484 | O=C(O)c1ccc(NC(=O)C(CC2CC(F)C2)c2ccc(-c3c(C(F)F)ccc(Cl)c3F)c[n+]2[O-])cc1 (single isomer, unassigned) [Example 80, 2-(1-((4-carboxyphenyl)amino)-3-(3-fluorocyclobutyl)-1-oxopropan-2-yl)-5-(3-chloro-6-(difluoromethyl)-2-fluorophenyl)pyridine 1-oxide]
24 |  | 166 | CCOC(=O)c1ccc(NC(=O)[C@H](CC2CCC2)c2ccc(-c3c(C(F)F)ccc(Cl)c3F)c[n+]2[O-])cc1 [Example 5, (R)-5-(3-chloro-6-(difluoromethyl)-2-fluorophenyl)-2-(3-cyclobutyl-1-((4-(ethoxycarbonyl)phenyl)amino)-1-oxopropan-2-yl)pyridine 1-oxide]
